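Cells were grown in 96-well plates and exposed to each compound for 48 hours at five concentrations; endpoints were interpolated linearly between bracketing concentrations, or set to the highest concentration if not reached. At the GI50, growth is halved.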 The source made the active and inactive calls. No stated cut-off is given here; in the data, active = GI50 up to about 1.1 µM and inactive = higher.
Tests used:
Test in all cases: DTP human tumour cell line panel, 48 h
A549 = system: A549
BT-549 = system: BT-549
CCRF-CEM = system: CCRF-CEM
HCT-116 = system: HCT-116
HCT-15 = system: HCT-15
IGROV-1 = system: IGROV-1
K562 = system: K562
KM12 = system: KM12
NCI-H460 = system: NCI-H460
OVCAR-4 = system: OVCAR-4
OVCAR-8 = system: OVCAR-8
SF-268 = system: SF-268
SK-MEL-2 = system: SK-MEL-2
SK-MEL-5 = system: SK-MEL-5
SNB-19 = system: SNB-19
SW-620 = system: SW-620
T47D = system: T47D
TK-10 = system: TK-10
UACC-62 = system: UACC-62
HOP-62 = system: HOP-62

Structure (SMILES)	GI50 (A549)	GI50 (BT-549)	GI50 (CCRF-CEM)	GI50 (HCT-116)	GI50 (HCT-15) [µM]	GI50 (IGROV-1)	GI50 (K562)	GI50 (KM12)	GI50 (NCI-H460)	GI50 (OVCAR-4)	GI50 (OVCAR-8)	GI50 (SF-268)	GI50 (SK-MEL-2)	GI50 (SK-MEL-5)	GI50 (SNB-19)	GI50 (SW-620)	GI50 (T47D)	GI50 (TK-10)	GI50 (UACC-62)	GI50 (HOP-62)
O=C(CC(=O)Nc1ccc(C(=O)O)cc1)Nc1ccc(C(=O)O)cc1	> 100 µM (inactive)	> 100 µM (inactive)	> 100 µM (inactive)	> 100 µM (inactive)	> 10	> 100 µM (inactive)	> 100 µM (inactive)	> 100 µM (inactive)	> 100 µM (inactive)	> 100 µM (inactive)	> 100 µM (inactive)	34.6 µM (inactive)	17.3 µM (inactive)	> 100 µM (inactive)	> 100 µM (inactive)	> 100 µM (inactive)	49.5 µM (inactive)	> 100 µM (inactive)	37.6 µM (inactive)	
COc1ccc(-c2cc(=O)c3c(OC)c(O)c(OC)cc3o2)cc1	42.5 µM (inactive)	55.3 µM (inactive)	38.4 µM (inactive)	46.8 µM (inactive)	35	33 µM (inactive)	52.4 µM (inactive)		32.8 µM (inactive)	40.4 µM (inactive)	56.6 µM (inactive)	91.4 µM (inactive)	57.1 µM (inactive)	23.4 µM (inactive)	58.7 µM (inactive)	54.3 µM (inactive)	23.1 µM (inactive)	28.3 µM (inactive)	30.8 µM (inactive)	38.1 µM (inactive)
Cc1ncc([N+](=O)[O-])n1CC[N+](C)([O-])CCCCn1ccnc1[N+](=O)[O-] (configuration not stated)	> 100 µM (inactive)	> 100 µM (inactive)	> 100 µM (inactive)	> 100 µM (inactive)	> 100	> 100 µM (inactive)	> 100 µM (inactive)	> 100 µM (inactive)	> 100 µM (inactive)	> 100 µM (inactive)	> 100 µM (inactive)	> 100 µM (inactive)	> 100 µM (inactive)	> 100 µM (inactive)		> 100 µM (inactive)	> 100 µM (inactive)	> 100 µM (inactive)	> 100 µM (inactive)	> 100 µM (inactive)
Cc1ccc([N+](=O)[O-])cc1S(=O)(=O)Nc1ccc(C2=NN(c3ccc([N+](=O)[O-])cc3[N+](=O)[O-])C(c3ccccc3)C2)cc1 (configuration not stated)	19.1 µM (inactive)	17.2 µM (inactive)	22.1 µM (inactive)	13 µM (inactive)	14.6	16.6 µM (inactive)	16 µM (inactive)	18.3 µM (inactive)		19.8 µM (inactive)	17 µM (inactive)	13.1 µM (inactive)	13.6 µM (inactive)	11.9 µM (inactive)	17.1 µM (inactive)	32.5 µM (inactive)	12.1 µM (inactive)	26.4 µM (inactive)		15.5 µM (inactive)
O=C1c2ccccc2C(=O)c2cc(/N=N/c3c(O)ccc4ccccc34)ccc21	> 100 µM (inactive)	> 100 µM (inactive)	> 100 µM (inactive)	> 100 µM (inactive)	> 100	> 100 µM (inactive)	> 100 µM (inactive)	> 100 µM (inactive)		> 100 µM (inactive)	> 100 µM (inactive)	30.1 µM (inactive)	> 100 µM (inactive)	> 100 µM (inactive)	> 100 µM (inactive)	> 100 µM (inactive)	> 100 µM (inactive)	> 100 µM (inactive)	> 100 µM (inactive)	30.2 µM (inactive)
Oc1ccccc1C1C=C(c2ccccc2)NC(N2CCCCC2)=C1c1nc2ccccc2[nH]1 (configuration not stated)	15.7 µM (inactive)	15.1 µM (inactive)	17.1 µM (inactive)	11.7 µM (inactive)	18.2	14.6 µM (inactive)	8.05 µM (inactive)	16.6 µM (inactive)	14.3 µM (inactive)	13.3 µM (inactive)	15.9 µM (inactive)	13.2 µM (inactive)		13.9 µM (inactive)	15 µM (inactive)	16.3 µM (inactive)	18.9 µM (inactive)	19.9 µM (inactive)	15.8 µM (inactive)	14.1 µM (inactive)
CC(C)(C)c1ccc(-n2c3nc(=O)n(-c4ccccc4CO)c(=O)c-3cc3ccccc32)cc1	76.2 µM (inactive)	38.4 µM (inactive)	38.1 µM (inactive)	38.4 µM (inactive)	48.4	71.9 µM (inactive)	45.7 µM (inactive)	37.7 µM (inactive)	38.9 µM (inactive)	49 µM (inactive)	55.3 µM (inactive)	40.6 µM (inactive)	> 10 µM (inactive)	38.9 µM (inactive)	74.8 µM (inactive)	39.2 µM (inactive)	50 µM (inactive)	61.5 µM (inactive)	26.8 µM (inactive)	
